Source: ChEMBL document CHEMBL1130110 (J Med Chem, 1997)

How the values were obtained:
[1] = molecular target: Glucagon receptor (Rattus norvegicus) (UniProt P30082); experiment: Relative binding potency expressed as receptor binding IC50 for glucagon by receptor binding IC50 for compound
[2] = molecular target: Glucagon receptor (Rattus norvegicus) (UniProt P30082); experiment: Percent stimulation of cAMP production over basal.; type: functional; design: concentration or dose not given beside the values

Sequence of Glucagon receptor (Rattus norvegicus) (P30082 whole entry): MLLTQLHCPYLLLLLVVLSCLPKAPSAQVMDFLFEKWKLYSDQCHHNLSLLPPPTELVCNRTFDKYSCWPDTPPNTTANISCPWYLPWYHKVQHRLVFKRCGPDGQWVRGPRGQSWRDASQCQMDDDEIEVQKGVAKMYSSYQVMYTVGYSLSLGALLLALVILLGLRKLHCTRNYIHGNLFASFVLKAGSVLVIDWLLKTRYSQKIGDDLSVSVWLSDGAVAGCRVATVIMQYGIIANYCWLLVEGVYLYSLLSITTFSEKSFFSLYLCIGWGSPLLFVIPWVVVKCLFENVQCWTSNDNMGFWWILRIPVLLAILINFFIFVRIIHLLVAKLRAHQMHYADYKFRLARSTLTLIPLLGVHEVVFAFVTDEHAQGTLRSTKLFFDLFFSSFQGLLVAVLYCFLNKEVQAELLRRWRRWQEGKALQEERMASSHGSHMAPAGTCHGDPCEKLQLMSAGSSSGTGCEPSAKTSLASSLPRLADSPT

| Compound | Activity [1] [%] | Activity [2] [%] |
| --- | --- | --- |
| CSCC[C@@H](NC(=O)[C@@H](CC(C)C)NC(=O)[C@@H](Cc1c[nH]c2ccccc12)NC(=O)[C@@H](CCC(N)=O)NC(=O)[C@H](NC(=O)[C@@H](Cc1ccccc1)NC(=O)[C@@H](CC(=O)O)NC(=O)[C@@H](CCC(N)=O)NC(=O)[C@@H](C)NC(=O)[C@@H](CCCN=C(N)N)NC(=O)[C@@H](CCCN=C(N)N)NC(=O)[C@@H](CO)NC(=O)[C@@H](CC(=O)O)NC(=O)[C@@H](CC(C)C)NC(=O)[C@@H](Cc1ccc(O)cc1)NC(=O)[C@@H](CCCCN)NC(=O)[C@@H](CO)NC(=O)[C@@H](Cc1ccc(O)cc1)NC(=O)[C@@H](CCC(=O)O)NC(=O)[C@@H](CO)NC(=O)[C@H](NC(=O)[C@@H](CC(=O)O)NC(=O)[C@H](NC(=O)CNC(=O)[C@@H](CCC(N)=O)NC(=O)[C@H](N)CO)[C@H](C)O)[C@H](C)O)C(C)C)C(=O)N[C@H](CC(N)=O)C(=O)N[C@@H](C(N)=O)[C@H](C)O | < 0.1 | 0 |
| CSCC[C@@H](NC(=O)[C@@H](CC(C)C)NC(=O)[C@@H](Cc1c[nH]c2ccccc12)NC(=O)[C@@H](CCC(N)=O)NC(=O)[C@H](NC(=O)[C@@H](Cc1ccccc1)NC(=O)[C@@H](CC(=O)O)NC(=O)[C@@H](CCC(N)=O)NC(=O)[C@@H](C)NC(=O)[C@@H](CCCN=C(N)N)NC(=O)[C@@H](CCCN=C(N)N)NC(=O)[C@@H](CO)NC(=O)[C@@H](CC(=O)O)NC(=O)[C@@H](CC(C)C)NC(=O)[C@@H](Cc1ccc(O)cc1)NC(=O)[C@@H](CCCCN)NC(=O)[C@@H](CO)NC(=O)[C@@H](Cc1ccc(O)cc1)NC(=O)[C@@H](CCC(=O)O)NC(=O)[C@@H](CO)NC(=O)[C@H](NC(=O)[C@H](NC(=O)CNC(=O)[C@@H](CCC(N)=O)NC(=O)[C@H](N)CO)[C@H](C)O)[C@H](C)O)C(C)C)C(=O)N[C@H](CC(N)=O)C(=O)N[C@@H](C(N)=O)[C@H](C)O | 3.1 | 0 |
| CSCC[C@@H](NC(=O)[C@@H](CC(C)C)NC(=O)[C@@H](Cc1c[nH]c2ccccc12)NC(=O)[C@@H](CCC(N)=O)NC(=O)[C@H](NC(=O)[C@@H](Cc1ccccc1)NC(=O)[C@@H](CC(=O)O)NC(=O)[C@@H](CCC(N)=O)NC(=O)[C@@H](C)NC(=O)[C@@H](CCCN=C(N)N)NC(=O)[C@@H](CCCN=C(N)N)NC(=O)[C@@H](CO)NC(=O)[C@@H](CC(=O)O)NC(=O)[C@@H](CC(C)C)NC(=O)[C@@H](Cc1ccc(O)cc1)NC(=O)[C@@H](CCCCN)NC(=O)[C@@H](CO)NC(=O)[C@@H](Cc1ccc(O)cc1)NC(=O)[C@@H](CC(=O)O)NC(=O)[C@@H](CO)NC(=O)[C@H](NC(=O)[C@H](NC(=O)CNC(=O)[C@@H](CCC(N)=O)NC(=O)[C@@H](CO)NC(=O)[C@H](N)Cc1c[nH]cn1)[C@H](C)O)[C@H](C)O)C(C)C)C(=O)N[C@H](CC(N)=O)C(=O)N[C@@H](C(N)=O)[C@H](C)O | 0.3 | 0 |
| CSCC[C@@H](NC(=O)[C@@H](CC(C)C)NC(=O)[C@@H](Cc1c[nH]c2ccccc12)NC(=O)[C@@H](CCC(N)=O)NC(=O)[C@H](NC(=O)[C@@H](Cc1ccccc1)NC(=O)[C@@H](CC(=O)O)NC(=O)[C@@H](CCC(N)=O)NC(=O)[C@@H](C)NC(=O)[C@@H](CCCN=C(N)N)NC(=O)[C@@H](CCCN=C(N)N)NC(=O)[C@@H](CO)NC(=O)[C@@H](CC(=O)O)NC(=O)[C@@H](CC(C)C)NC(=O)[C@@H](Cc1ccc(O)cc1)NC(=O)[C@@H](CCCCN)NC(=O)[C@@H](CO)NC(=O)[C@@H](Cc1ccc(O)cc1)NC(=O)[C@@H](CCC(=O)O)NC(=O)[C@@H](CO)NC(=O)[C@H](NC(=O)[C@@H](Cc1ccccc1)NC(=O)[C@H](NC(=O)[C@@H](CCC(N)=O)NC(=O)[C@H](N)CO)[C@H](C)O)[C@H](C)O)C(C)C)C(=O)N[C@H](CC(N)=O)C(=O)N[C@@H](C(N)=O)[C@H](C)O | 3 | 6 |
| CSCC[C@@H](NC(=O)[C@@H](CC(C)C)NC(=O)[C@@H](Cc1c[nH]c2ccccc12)NC(=O)[C@@H](CCC(N)=O)NC(=O)[C@H](NC(=O)[C@@H](Cc1ccccc1)NC(=O)[C@@H](CC(=O)O)NC(=O)[C@@H](CCC(N)=O)NC(=O)[C@@H](C)NC(=O)[C@@H](CCCN=C(N)N)NC(=O)[C@@H](CCCN=C(N)N)NC(=O)[C@@H](CO)NC(=O)[C@@H](CC(=O)O)NC(=O)[C@@H](CC(C)C)NC(=O)[C@@H](Cc1ccc(O)cc1)NC(=O)[C@@H](CCCCN)NC(=O)[C@@H](CO)NC(=O)[C@@H](Cc1ccc(O)cc1)NC(=O)[C@@H](CCC(=O)O)NC(=O)[C@@H](CO)NC(=O)[C@H](NC(=O)[C@H](NC(=O)CNC(=O)[C@@H](CCC(N)=O)NC(=O)[C@H](N)CO)[C@H](C)O)[C@H](C)O)C(C)C)C(=O)N[C@H](CC(N)=O)C(=O)N[C@@H](C(=O)O)[C@H](C)O (stereo in doubt; 12) | < 0.1 | 0 |
| CSCC[C@@H](NC(=O)[C@@H](CC(C)C)NC(=O)[C@@H](Cc1c[nH]c2ccccc12)NC(=O)[C@@H](CCC(N)=O)NC(=O)[C@H](NC(=O)[C@@H](Cc1ccccc1)NC(=O)[C@@H](CC(=O)O)NC(=O)[C@@H](CCC(N)=O)NC(=O)[C@@H](C)NC(=O)[C@@H](CCCN=C(N)N)NC(=O)[C@@H](CCCN=C(N)N)NC(=O)[C@@H](CO)NC(=O)[C@@H](CC(=O)O)NC(=O)[C@@H](CC(C)C)NC(=O)[C@@H](Cc1ccc(O)cc1)NC(=O)[C@@H](CCCCN)NC(=O)[C@@H](CO)NC(=O)[C@@H](Cc1ccc(O)cc1)NC(=O)[C@@H](CCC(=O)O)NC(=O)[C@@H](CO)NC(=O)[C@H](NC(=O)[C@H](NC(=O)CNC(=O)[C@@H](CCC(N)=O)NC(=O)[C@H](N)CO)[C@H](C)O)[C@H](C)O)C(C)C)C(=O)N[C@H](CC(N)=O)C(=O)N[C@@H](C(=O)O)[C@H](C)O (stereo in doubt; 13) | < 0.1 | 0 |
| CSCC[C@@H](NC(=O)[C@@H](CC(C)C)NC(=O)[C@@H](Cc1c[nH]c2ccccc12)NC(=O)[C@@H](CCC(N)=O)NC(=O)[C@H](NC(=O)[C@@H](Cc1ccccc1)NC(=O)[C@@H](CC(=O)O)NC(=O)[C@@H](CCC(N)=O)NC(=O)[C@@H](C)NC(=O)[C@@H](CCCN=C(N)N)NC(=O)[C@@H](CCCN=C(N)N)NC(=O)[C@@H](CO)NC(=O)[C@@H](CC(=O)O)NC(=O)[C@@H](CC(C)C)NC(=O)[C@@H](Cc1ccc(O)cc1)NC(=O)[C@@H](CCCCN)NC(=O)[C@@H](CO)NC(=O)[C@@H](Cc1ccc(O)cc1)NC(=O)[C@@H](CCC(=O)O)NC(=O)[C@@H](CO)NC(=O)[C@H](NC(=O)[C@H](Cc1ccccc1)NC(=O)[C@H](NC(=O)CNC(=O)[C@@H](CCC(N)=O)NC(=O)[C@H](N)CO)[C@H](C)O)[C@H](C)O)C(C)C)C(=O)N[C@H](CC(N)=O)C(=O)N[C@@H](C(N)=O)[C@H](C)O | 1.5 | 0 |
| CC(C)C[C@@H](NC(=O)[C@@H](Cc1ccc(O)cc1)NC(=O)[C@@H](CCCCN)NC(=O)[C@@H](CO)NC(=O)[C@@H](Cc1ccc(O)cc1)NC(=O)[C@@H](CC(=O)O)NC(=O)[C@@H](CO)NC(=O)[C@H](NC(=O)[C@H](NC(=O)CNC(=O)[C@@H](CCC(N)=O)NC(=O)[C@@H](CO)NC(=O)[C@H](N)Cc1c[nH]cn1)[C@H](C)O)[C@H](C)O)C(=O)N[C@H](CC(=O)O)C(=O)N[C@H](CO)C(=O)N[C@H](CCCN=C(N)N)C(=O)N[C@H](CCCN=C(N)N)C(=O)N[C@H](C)C(=O)N[C@H](CCC(N)=O)C(=O)N[C@H](CC(=O)O)C(=O)N[C@H](Cc1ccccc1)C(=O)N[C@@H](C(=O)N[C@H](CCC(N)=O)C(=O)N[C@H](Cc1c[nH]c2ccccc12)C(=O)N[C@H](CC(C)C)C(=O)N[C@H](CCS)C(=O)N[C@H](CC(N)=O)C(=O)N[C@@H](C=O)[C@H](C)O)C(C)C | 0.3 | 0 |
| CSCC[C@@H](NC(=O)[C@@H](CC(C)C)NC(=O)[C@@H](Cc1c[nH]c2ccccc12)NC(=O)[C@@H](CCC(N)=O)NC(=O)[C@H](NC(=O)[C@@H](Cc1ccccc1)NC(=O)[C@@H](CC(=O)O)NC(=O)[C@@H](CCC(N)=O)NC(=O)[C@@H](C)NC(=O)[C@@H](CCCN=C(N)N)NC(=O)[C@@H](CCCN=C(N)N)NC(=O)[C@@H](CO)NC(=O)[C@@H](CC(=O)O)NC(=O)[C@@H](CC(C)C)NC(=O)[C@@H](Cc1ccc(O)cc1)NC(=O)[C@@H](CCCCN)NC(=O)[C@@H](CO)NC(=O)[C@@H](Cc1ccc(O)cc1)NC(=O)[C@@H](CCC(=O)O)NC(=O)[C@@H](CO)NC(=O)[C@H](NC(=O)[C@@H](C)NC(=O)[C@H](NC(=O)CNC(=O)[C@@H](CCC(N)=O)NC(=O)[C@H](N)CO)[C@H](C)O)[C@H](C)O)C(C)C)C(=O)N[C@H](CC(N)=O)C(=O)N[C@@H](C(N)=O)[C@H](C)O | 1.2 | 0 |
| CSCC[C@@H](NC(=O)[C@@H](CC(C)C)NC(=O)[C@@H](Cc1c[nH]c2ccccc12)NC(=O)[C@@H](CCC(N)=O)NC(=O)[C@H](NC(=O)[C@@H](Cc1ccccc1)NC(=O)[C@@H](CC(=O)O)NC(=O)[C@@H](CCC(N)=O)NC(=O)[C@@H](C)NC(=O)[C@@H](CCCN=C(N)N)NC(=O)[C@@H](CCCN=C(N)N)NC(=O)[C@@H](CO)NC(=O)[C@@H](CC(=O)O)NC(=O)[C@@H](CC(C)C)NC(=O)[C@@H](Cc1ccc(O)cc1)NC(=O)[C@@H](CCCCN)NC(=O)[C@@H](CO)NC(=O)[C@@H](Cc1ccc(O)cc1)NC(=O)[C@@H](CCC(=O)O)NC(=O)[C@@H](CO)NC(=O)[C@H](NC(=O)[C@@H](Cc1c[nH]c2ccccc12)NC(=O)[C@H](NC(=O)CNC(=O)[C@@H](CCC(N)=O)NC(=O)[C@H](N)CO)[C@H](C)O)[C@H](C)O)C(C)C)C(=O)N[C@H](CC(N)=O)C(=O)N[C@@H](C(N)=O)[C@H](C)O | 7.9 | 0 |
| CSCC[C@@H](NC(=O)[C@@H](CC(C)C)NC(=O)[C@@H](Cc1c[nH]c2ccccc12)NC(=O)[C@@H](CCC(N)=O)NC(=O)[C@H](NC(=O)[C@@H](Cc1ccccc1)NC(=O)[C@@H](CC(=O)O)NC(=O)[C@@H](CCC(N)=O)NC(=O)[C@@H](C)NC(=O)[C@@H](CCCN=C(N)N)NC(=O)[C@@H](CCCN=C(N)N)NC(=O)[C@@H](CO)NC(=O)[C@@H](CC(=O)O)NC(=O)[C@@H](CC(C)C)NC(=O)[C@@H](Cc1ccc(O)cc1)NC(=O)[C@@H](CCCCN)NC(=O)[C@@H](CO)NC(=O)[C@@H](Cc1ccc(O)cc1)NC(=O)[C@@H](CC(=O)O)NC(=O)[C@@H](CO)NC(=O)[C@H](NC(=O)[C@H](NC(=O)CNC(=O)[C@@H](CCC(N)=O)NC(=O)[C@H](N)CO)[C@H](C)O)[C@H](C)O)C(C)C)C(=O)N[C@H](CC(N)=O)C(=O)N[C@@H](C(N)=O)[C@H](C)O | 1.2 | 0 |
